# Measurements taken from ChEMBL document CHEMBL5042535, “Structure-Based Design and Synthesis of N-Substituted 3-Amino-β-Carboline Derivatives as Potent αβ-Tubulin Degradation Agents” (J Med Chem, 2022).
# Columns and labels:
# Assay type in all cases: functional, cell-based
# MCF7 = assay: Antiproliferative activity against human MCF7 cells assessed as reduction in cell viability measured after 24 hrs by MTT assay; details: MCF7, 24 h
# NCI-H460 = assay: Antiproliferative activity against human NCI-H460 cells assessed as reduction in cell viability measured after 24 hrs by MTT assay; details: NCI-H460, 24 h
# Raji = assay: Antiproliferative activity against human Raji cells assessed as reduction in cell viability measured after 24 hrs by MTT assay
# A2780S = assay: Antiproliferative activity against human A2780S cells assessed as reduction in cell viability measured after 24 hrs by MTT assay
# HeLa = assay: Antiproliferative activity against human HeLa cells assessed as reduction in cell viability measured after 24 hrs by MTT assay
Structure (SMILES),IC50 (MCF7),IC50 (NCI-H460),IC50 (Raji),IC50 (A2780S),IC50 (HeLa)
c1ccc2c(c1)[nH]c1cnc(NCc3ccsc3)cc12,73 nM,87 nM,43 nM,63 nM,93 nM
CC(C)(C)CC(C)(C)c1ccc(Oc2cccc(CNc3cc4c(cn3)[nH]c3ccccc34)c2)cc1,> 500 nM,> 500 nM,> 500 nM,> 500 nM,> 500 nM
CC(=O)Nc1ccccc1Oc1cccc(CNc2cc3c(cn2)[nH]c2ccccc23)c1,> 500 nM,> 500 nM,> 500 nM,> 500 nM,> 500 nM
CC(C)CCOc1cccc(CNc2cc3c(cn2)[nH]c2ccccc23)c1,> 500 nM,> 500 nM,> 500 nM,> 500 nM,> 500 nM
c1cc(CNc2cc3c(cn2)[nH]c2ccccc23)cc(OCC2CC2)c1,> 500 nM,> 500 nM,> 500 nM,> 500 nM,> 500 nM
COc1ccccc1Oc1cccc(CNc2cc3c(cn2)[nH]c2ccccc23)c1,> 500 nM,> 500 nM,500 nM,> 500 nM,> 500 nM
FC(F)(F)c1ccc(Oc2cccc(CNc3cc4c(cn3)[nH]c3ccccc34)c2)cc1,68 nM,47 nM,54 nM,85 nM,81 nM
CC(C)CNc1cc2c(cn1)[nH]c1ccccc12,> 500 nM,> 500 nM,> 500 nM,> 500 nM,> 500 nM
c1cc(CNc2cc3c(cn2)[nH]c2ccccc23)cc(Oc2ccc3c(c2)OCCO3)c1,> 500 nM,> 500 nM,> 500 nM,> 500 nM,> 500 nM
c1ccc(Oc2ccc(Oc3cccc(CNc4cc5c(cn4)[nH]c4ccccc45)c3)cc2)cc1,> 500 nM,> 500 nM,> 500 nM,> 500 nM,> 500 nM
CC(=O)Nc1cccc(Oc2cccc(CNc3cc4c(cn3)[nH]c3ccccc34)c2)c1,76 nM,74 nM,45 nM,58 nM,83 nM
c1cc(CNc2cc3c(cn2)[nH]c2ccccc23)cc(OC2CCCC2)c1,> 500 nM,> 500 nM,> 500 nM,> 500 nM,> 500 nM
CCCCOc1cccc(CNc2cc3c(cn2)[nH]c2ccccc23)c1,> 500 nM,> 500 nM,> 500 nM,> 500 nM,> 500 nM
c1csc(CNc2cc3c(cn2)[nH]c2ccccc23)c1,424 nM,> 500 nM,257 nM,> 500 nM,412 nM
N#Cc1ccccc1Oc1cccc(CNc2cc3c(cn2)[nH]c2ccccc23)c1,> 500 nM,> 500 nM,> 500 nM,> 500 nM,> 500 nM
CC(C)=CCOc1cccc(CNc2cc3c(cn2)[nH]c2ccccc23)c1,> 500 nM,> 500 nM,> 500 nM,> 500 nM,> 500 nM
Cn1cccc1CNc1cc2c(cn1)[nH]c1ccccc12,> 500 nM,500 nM,> 500 nM,> 500 nM,> 500 nM
COc1ccc(CNc2cc3c(cn2)[nH]c2ccccc23)cn1,> 500 nM,> 500 nM,> 500 nM,> 500 nM,> 500 nM
c1ccc(-c2ccc(Oc3cccc(CNc4cc5c(cn4)[nH]c4ccccc45)c3)cc2)cc1,> 500 nM,> 500 nM,> 500 nM,> 500 nM,> 500 nM
c1ccc2c(c1)[nH]c1cnc(NCC3CCCCC3)cc12,> 500 nM,> 500 nM,> 500 nM,> 500 nM,> 500 nM
CC(C)=CCNc1cc2c(cn1)[nH]c1ccccc12,> 500 nM,> 500 nM,382 nM,> 500 nM,> 500 nM
CCCCNc1cc2c(cn1)[nH]c1ccccc12,513 nM,340 nM,220 nM,175 nM,> 500 nM
COc1cc2c(c(OC)c1OC)-c1ccc(OC)c(=O)cc1[C@@H](NC(C)=O)CC2 [COLCHICINE],–,12 nM,18 nM,–,16 nM
CC(C)Oc1cccc(CNc2cc3c(cn2)[nH]c2ccccc23)c1,> 500 nM,> 500 nM,> 500 nM,> 500 nM,> 500 nM
c1ccc2c(c1)[nH]c1cnc(NC3CCCC3)cc12,397 nM,> 500 nM,242 nM,92 nM,> 500 nM
COc1cc(Oc2cccc(CNc3cc4c(cn3)[nH]c3ccccc34)c2)cc(OC)c1OC,> 500 nM,> 500 nM,> 500 nM,> 500 nM,> 500 nM
CCCOc1cccc(CNc2cc3c(cn2)[nH]c2ccccc23)c1,> 500 nM,> 500 nM,> 500 nM,> 500 nM,> 500 nM
c1ccc2c(c1)[nH]c1cnc(NCc3ccoc3)cc12,71 nM,342 nM,73 nM,93 nM,66 nM
CCOc1cccc(CNc2cc3c(cn2)[nH]c2ccccc23)c1,> 500 nM,> 500 nM,> 500 nM,> 500 nM,> 500 nM

# Second part, the compound after the results:
IC50 (MCF7),IC50 (NCI-H460),IC50 (Raji),IC50 (A2780S),IC50 (HeLa),Structure (SMILES)
48 nM,222 nM,74 nM,73 nM,45 nM,Clc1ccc(Oc2cccc(CNc3cc4c(cn3)[nH]c3ccccc34)c2)cc1
59 nM,50 nM,42 nM,41 nM,71 nM,Fc1cccc(Oc2cccc(CNc3cc4c(cn3)[nH]c3ccccc34)c2)c1
> 500 nM,> 500 nM,> 500 nM,> 500 nM,> 500 nM,c1ccc(-c2ccc(CNc3cc4c(cn3)[nH]c3ccccc34)cc2)cc1
59 nM,52 nM,32 nM,62 nM,57 nM,Cc1ccccc1Oc1cccc(CNc2cc3c(cn2)[nH]c2ccccc23)c1
> 500 nM,> 500 nM,> 500 nM,> 500 nM,500 nM,N#Cc1cccc(Oc2cccc(CNc3cc4c(cn3)[nH]c3ccccc34)c2)c1
109 nM,313 nM,178 nM,148 nM,219 nM,COc1cccc(Oc2cccc(CNc3cc4c(cn3)[nH]c3ccccc34)c2)c1
47 nM,48 nM,37 nM,60 nM,46 nM,N#Cc1ccc(Oc2cccc(CNc3cc4c(cn3)[nH]c3ccccc34)c2)cc1
93 nM,105 nM,16 nM,73 nM,59 nM,Fc1ccccc1Oc1cccc(CNc2cc3c(cn2)[nH]c2ccccc23)c1
49 nM,62 nM,31 nM,45 nM,51 nM,c1ccc(Oc2cccc(CNc3cc4c(cn3)[nH]c3ccccc34)c2)cc1
64 nM,234 nM,119 nM,78 nM,93 nM,c1cc(CNc2cc3c(cn2)[nH]c2ccccc23)cc(Oc2ccc3ncccc3c2)c1
> 500 nM,> 500 nM,> 500 nM,> 500 nM,> 500 nM,c1ccc(-c2cccc(CNc3cc4c(cn3)[nH]c3ccccc34)c2)cc1
19 nM,74 nM,59 nM,43 nM,63 nM,Clc1ccccc1Oc1cccc(CNc2cc3c(cn2)[nH]c2ccccc23)c1
> 500 nM,> 500 nM,> 500 nM,> 500 nM,> 500 nM,c1ccc2ncc(CNc3cc4c(cn3)[nH]c3ccccc34)cc2c1
> 500 nM,> 500 nM,> 500 nM,> 500 nM,> 500 nM,COc1ccc(COc2cccc(CNc3cc4c(cn3)[nH]c3ccccc34)c2)cc1
> 500 nM,> 500 nM,> 500 nM,> 500 nM,> 500 nM,CSc1ccc(Oc2cccc(CNc3cc4c(cn3)[nH]c3ccccc34)c2)cc1
27 nM,76 nM,33 nM,28 nM,39 nM,Fc1ccc(Oc2cccc(CNc3cc4c(cn3)[nH]c3ccccc34)c2)cc1
47 nM,44 nM,29 nM,44 nM,41 nM,Cc1cccc(Oc2cccc(CNc3cc4c(cn3)[nH]c3ccccc34)c2)c1
> 500 nM,> 500 nM,> 500 nM,> 500 nM,> 500 nM,c1cc2ccc3cccc4c(CNc5cc6c(cn5)[nH]c5ccccc56)cc(c1)c2c34
33 nM,67 nM,20 nM,12 nM,19 nM,COc1ccc(Oc2cccc(CNc3cc4c(cn3)[nH]c3ccccc34)c2)cc1
> 500 nM,> 500 nM,> 500 nM,> 500 nM,> 500 nM,c1ccc(COc2cccc(CNc3cc4c(cn3)[nH]c3ccccc34)c2)cc1
27 nM,31 nM,15 nM,11 nM,67 nM,CC(=O)Nc1ccc(Oc2cccc(CNc3cc4c(cn3)[nH]c3ccccc34)c2)cc1
39 nM,165 nM,57 nM,55 nM,56 nM,Cc1ccc(Oc2cccc(CNc3cc4c(cn3)[nH]c3ccccc34)c2)cc1
